According to the NIST ThermoML archive (doi:10.1021/je060271a):

Settings: 283.15 K, Liquid, Vibrating tube method

CCCCC(=O)OCC(COC(=O)CCCC)(COC(=O)CCCC)COC(=O)CCCC [pentaerythritol tetrapentanoate]
Settings	mass density [kg/m3]
17085 kPa	1036.8
17119 kPa	1037
17147 kPa	1036.9
17175 kPa	1036.9
17208 kPa	1036.9
17236 kPa	1036.9
17270 kPa	1036.9
17299 kPa	1037
17327 kPa	1037
17355 kPa	1037.1
17390 kPa	1037
17419 kPa	1037.1
17449 kPa	1037.2
17478 kPa	1037
17514 kPa	1037
17542 kPa	1037.2
17572 kPa	1037.1
17607 kPa	1037.1
17637 kPa	1037.4
17666 kPa	1037.2
17702 kPa	1037.3
17732 kPa	1037.2
17762 kPa	1037.3
17798 kPa	1037.3
17829 kPa	1037.1
17860 kPa	1037.4
17890 kPa	1037.4
17927 kPa	1037.2
17958 kPa	1037.4
17995 kPa	1037.4
18026 kPa	1037.4
18058 kPa	1037.4
18097 kPa	1037.4
18130 kPa	1037.4
18164 kPa	1037.4
18197 kPa	1037.5
18237 kPa	1037.5
18262 kPa	1037.5
18283 kPa	1037.6
18309 kPa	1037.6
18330 kPa	1037.6
18356 kPa	1037.5
18377 kPa	1037.6
18399 kPa	1037.6
18421 kPa	1037.6
18446 kPa	1037.8
18468 kPa	1037.6
18490 kPa	1037.7
18517 kPa	1037.7
18539 kPa	1037.6
18561 kPa	1037.7
18588 kPa	1037.6
18610 kPa	1037.8
18631 kPa	1037.7
18657 kPa	1037.6
18680 kPa	1037.8
18702 kPa	1037.9
18728 kPa	1037.6
18750 kPa	1037.7
18778 kPa	1037.8
18800 kPa	1037.8
18823 kPa	1037.9
18845 kPa	1037.8
18874 kPa	1037.8
18896 kPa	1037.8
18919 kPa	1037.9
18947 kPa	1037.9
18970 kPa	1037.8
18993 kPa	1037.9
19021 kPa	1038
19044 kPa	1037.9
19067 kPa	1037.8
19094 kPa	1037.9
19118 kPa	1038
19142 kPa	1038.1
19166 kPa	1038
19191 kPa	1038
19219 kPa	1038
19243 kPa	1038
19266 kPa	1038
19295 kPa	1038.2
19319 kPa	1038
19343 kPa	1038
19372 kPa	1038.2
19397 kPa	1038.1
19420 kPa	1038.2
19450 kPa	1038.1
19475 kPa	1038.1
19501 kPa	1038.1
19525 kPa	1038.2
19550 kPa	1038.2
19579 kPa	1038.2
19603 kPa	1038.3
19633 kPa	1038.3
19658 kPa	1038.2
19682 kPa	1038.1
19707 kPa	1038.3
19738 kPa	1038.4
19763 kPa	1038.4
19788 kPa	1038.3
19818 kPa	1038.4
19844 kPa	1038.3
19874 kPa	1038.4
19900 kPa	1038.3
19925 kPa	1038.5
19951 kPa	1038.5
19982 kPa	1038.5
20007 kPa	1038.5
20033 kPa	1038.5
20064 kPa	1038.4
20090 kPa	1038.5
20121 kPa	1038.5
20147 kPa	1038.5
20174 kPa	1038.5
20200 kPa	1038.6
20232 kPa	1038.5
20259 kPa	1038.7
20286 kPa	1038.5
20318 kPa	1038.6
20344 kPa	1038.6
20376 kPa	1038.6
20403 kPa	1038.6
20430 kPa	1038.8
20462 kPa	1038.6
20490 kPa	1038.7
20517 kPa	1038.7
20550 kPa	1038.8
20578 kPa	1038.8
20607 kPa	1038.8
20634 kPa	1038.9
20667 kPa	1038.8
20695 kPa	1038.8
20723 kPa	1038.8
20756 kPa	1038.9
20784 kPa	1038.9
20812 kPa	1038.9
20846 kPa	1038.9
20875 kPa	1039
20904 kPa	1038.9
20938 kPa	1038.9
20966 kPa	1038.9
20995 kPa	1039
21029 kPa	1039
21058 kPa	1039.1
21086 kPa	1039.2
21116 kPa	1039
21151 kPa	1039
21180 kPa	1039.1
21215 kPa	1039.1
21244 kPa	1039.2
21274 kPa	1039.1
21303 kPa	1039.1
21340 kPa	1039.1
21369 kPa	1039.2
21399 kPa	1039.1
21435 kPa	1039.2
21464 kPa	1039.2
21495 kPa	1039.3
21531 kPa	1039.4
21561 kPa	1039.3
21592 kPa	1039.3
21628 kPa	1039.2
21658 kPa	1039.2
21689 kPa	1039.3
21727 kPa	1039.4
21760 kPa	1039.4
21791 kPa	1039.4
21822 kPa	1039.5
21860 kPa	1039.5
21891 kPa	1039.5
21922 kPa	1039.5
21954 kPa	1039.5
21992 kPa	1039.5
22024 kPa	1039.5
22061 kPa	1039.6
22093 kPa	1039.7
22125 kPa	1039.5
22164 kPa	1039.5
22192 kPa	1039.6
22231 kPa	1039.6
22263 kPa	1039.6
22302 kPa	1039.7
22335 kPa	1039.7
22367 kPa	1039.8
22406 kPa	1039.7
22439 kPa	1039.8
22472 kPa	1039.7
22512 kPa	1039.8
22545 kPa	1039.8
22579 kPa	1039.8
22619 kPa	1040
22654 kPa	1039.9
22687 kPa	1039.9
22721 kPa	1039.9
22762 kPa	1039.8
22796 kPa	1040
22830 kPa	1039.9
22871 kPa	1040
22905 kPa	1040
22947 kPa	1039.9
22982 kPa	1040.1
23016 kPa	1039.9
23059 kPa	1040
23094 kPa	1040.1
23129 kPa	1040.1
23164 kPa	1040.2
23208 kPa	1040.1
23243 kPa	1040.3
23285 kPa	1040.3
23321 kPa	1040.3
23357 kPa	1040.2
23394 kPa	1040.2
23437 kPa	1040.3
23473 kPa	1040.2
23516 kPa	1040.4
23553 kPa	1040.3
23590 kPa	1040.4
23635 kPa	1040.3
23672 kPa	1040.4
23709 kPa	1040.5
23746 kPa	1040.5
23790 kPa	1040.5
23827 kPa	1040.5
23872 kPa	1040.5
23909 kPa	1040.5
23947 kPa	1040.5
24000 kPa	1040.6
24048 kPa	1040.5
24099 kPa	1040.6
24162 kPa	1040.7
24208 kPa	1040.8
24238 kPa	1040.7
24266 kPa	1040.7
24299 kPa	1040.8
24327 kPa	1040.8
24360 kPa	1040.9
24388 kPa	1040.7
24416 kPa	1040.9
24444 kPa	1040.9
24478 kPa	1040.9
24506 kPa	1040.9
24535 kPa	1041
24569 kPa	1040.9
24598 kPa	1041
24626 kPa	1040.9
24660 kPa	1040.9
24689 kPa	1040.9
24718 kPa	1041
24746 kPa	1041
24781 kPa	1041.2
24810 kPa	1041
24845 kPa	1041.1
24874 kPa	1041.2
24903 kPa	1041.1
24934 kPa	1041.1
24964 kPa	1041.1
24999 kPa	1041
25028 kPa	1041.2
25058 kPa	1041.2
25088 kPa	1041.2
25124 kPa	1041.1
25154 kPa	1041.2
25183 kPa	1041.2
25219 kPa	1041.3
25249 kPa	1041.3
25279 kPa	1041.3
25347 kPa	1041.3
25380 kPa	1041.4
25410 kPa	1041.3
25441 kPa	1041.5
25477 kPa	1041.3
25508 kPa	1041.3
25544 kPa	1041.4
25575 kPa	1041.5
25606 kPa	1041.5
25642 kPa	1041.6
25673 kPa	1041.4
25705 kPa	1041.4
25742 kPa	1041.3
25775 kPa	1041.5
25806 kPa	1041.6
25837 kPa	1041.5
25875 kPa	1041.6
25907 kPa	1041.6
25939 kPa	1041.7
25977 kPa	1041.6
26009 kPa	1041.6
26041 kPa	1041.6
26079 kPa	1041.7
26111 kPa	1041.7
26143 kPa	1041.7
26176 kPa	1041.8
26216 kPa	1041.7
26249 kPa	1041.8
26282 kPa	1041.8
26315 kPa	1041.8
26354 kPa	1041.8
26388 kPa	1041.9
26421 kPa	1041.8
26461 kPa	1041.9
26494 kPa	1042
26528 kPa	1041.8
26567 kPa	1042
26601 kPa	1041.9
26635 kPa	1041.9
26669 kPa	1042
26710 kPa	1042
26744 kPa	1042.1
26778 kPa	1042.1
26818 kPa	1042
26853 kPa	1042.1
26893 kPa	1042.1
26928 kPa	1042.1
26963 kPa	1042.2
26997 kPa	1042.1
27039 kPa	1042.2
27074 kPa	1042.2
27110 kPa	1042.3
27152 kPa	1042.2
27187 kPa	1042.3
